The record followed here is ChEMBL document CHEMBL3400065, “N10,N11-di-alkylamine indolo[3,2-b]quinolines as hemozoin inhibitors: design, synthesis and antiplasmodial activity” (Bioorg Med Chem, 2015).

The test system of series [1] is Plasmodium falciparum. The experiment in a line: Antimalarial activity against ring stage Plasmodium falciparum Dd2 infected with human red blood cells incubated for 48 hrs by SYBR Green method. It is filed as functional. To be noted: Dd2, 48 h.
The nature of series [2]: Selectivity index, ratio of IC50 for human HepG2A16 cells to IC50 for ring stage Plasmodium falciparum W2. It is filed as toxicity. To be noted: read-out: Ratio IC50.
Series [3] deals with Plasmodium falciparum. The series is described as follows: Antimalarial activity against ring stage Plasmodium falciparum W2 infected with human red blood cells incubated for 48 hrs by flow cytometry. It is filed as functional, organism-based. The settings on record: W2, 48 h.
Series [4] in a line: Inhibition of beta-hematin formation after 5 to 6 hrs by pyridine-ferrichrome detergent-mediated assay. It is filed as physicochemical.
Series [5] has as its system Plasmodium falciparum. The series is described as follows: Antimalarial activity against ring stage Plasmodium falciparum 3D7 infected with human red blood cells incubated for 48 hrs by SYBR Green method. The settings on record: 3D7, 48 h. It is filed as functional, organism-based.
The nature of series [6]: n-octanol-phosphate buffer partition coefficient, log D in CH3CN-MeOH-phosphate buffer at pH 5.2 by HPLC-UV analysis. It is filed as physicochemical.
Series [7] in a line: Cytotoxicity against human HepG2A16 cells by MTT assay. It is filed as cell-based.
A short description of series [8]: n-octanol-phosphate buffer partition coefficient, log D in CH3CN-MeOH-phosphate buffer at pH 7.4 by HPLC-UV analysis. It is filed as physicochemical.
Series [9] deals with Plasmodium falciparum. The series is described as follows: Ratio of chloroquine IC50 to compound IC50 for ring stage Plasmodium falciparum W2 infected with human red blood cells incubated for 48 hrs by flow cytometry. It is filed as functional. (In flow cytometry, cells or beads pass a laser one at a time.)
Series [10] deals with Plasmodium falciparum. The experiment in a line: Resistance index, ratio of IC50 for ring stage Plasmodium falciparum Dd2 to IC50 for ring stage Plasmodium falciparum 3D7. It is filed as functional.
Series [11] concerns Plasmodium falciparum. The experiment in a line: Resistance index, ratio of IC50 for ring stage Plasmodium falciparum W2 to IC50 for ring stage Plasmodium falciparum 3D7. It is filed as functional.

As a reminder, the IC50 is the point on the concentration scale where inhibition reaches its midpoint. By logD is commonly meant the decadic logarithm of the distribution of all forms, ionised or not, between an organic phase and buffer at a given pH. A lower logD goes with lower lipophilicity.

Consider `CCN(CC)CCCC(C)Nc1c2ccc(Cl)cc2nc2c3cc(Cl)ccc3n(CCN3CCCC3)c12` (centres undefined), for which the concentration for half-maximal inhibition (IC50) in the series on Plasmodium falciparum [1] stood at 706 nM; in the series on Plasmodium falciparum [3] it was 126 nM; in series [4] it was 10800 nM; in the series on Plasmodium falciparum [5], 456 nM; in [7], 6500 nM. The selectivity ratio in series [2] amounted to 52. Also, the pH-dependent lipophilicity (logD) in series [6] stood at 0.26.

`CCN(CC)CCNc1c2ccc(Cl)cc2nc2c3ccccc3n(CCN3CCCC3)c12`: the IC50 in the series with Plasmodium falciparum [1] was found to be 724 nM; in the series with Plasmodium falciparum [3] it was 158 nM; in series [4], 98200 nM; in the series with Plasmodium falciparum [5], 656 nM; in series [7], 6400 nM. Further, the selectivity ratio in series [2] was found to be 40. For the same compound, the figures for the logD in [6] and in series [8] were 0.05 and 3.2, respectively.

In [4], `CCN(CC)CCCC(C)Nc1ccnc2cc(Cl)ccc12` (centres undefined) [CHLOROQUINE] gave an IC50 of 28200 nM.

Consider `Clc1ccc2c(NCCN3CCCC3)c3c(nc2c1)c1ccccc1n3CCN1CCCC1`, for which the IC50 in the series with Plasmodium falciparum [1] worked out at 631 nM; in the series with Plasmodium falciparum [3] it was 99 nM; in [4] it was 79000 nM; with Plasmodium falciparum [5], 468 nM; in series [7] it was 4600 nM. The selectivity ratio in [2] was 46. Moreover, the log distribution coefficient (logD) was 0.34 in series [6] and 2.7 in [8].

For `CCN(CC)CCCC(C)Nc1c2ccc(Cl)cc2nc2c3ccccc3n(CCN3CCCC3)c12` (centres undefined), the IC50 in the series on Plasmodium falciparum [1] is 314 nM; in the series with Plasmodium falciparum [3], 20 nM; in series [4], 7900 nM; in the series on Plasmodium falciparum [5], 245 nM; in series [7], 2500 nM. Moreover, the selectivity ratio in series [2] is 125. Also, the “Ratio IC50” value in the series on Plasmodium falciparum [9] came out at 10. In addition, the logD is 0.1 in series [6] and 0.6 in series [8].

For `CCN(CC)CCCNc1c2ccc(Cl)cc2nc2c3cc(Cl)ccc3n(CCN3CCCC3)c12`, the half-maximal inhibitory concentration (IC50) was found to be 481 nM in the series with Plasmodium falciparum [1]; 77 nM in the series with Plasmodium falciparum [3]; 20400 nM in [4]; 392 nM with Plasmodium falciparum [5]; 6000 nM in [7]. For the same compound, in series [2], the selectivity ratio is 78. Also, the logD in [6] worked out at 0.54; in series [8] it was 3.23.

In the case of `Clc1ccc2c(NCCN3CCCC3)c3c(nc2c1)c1cc(Cl)ccc1n3CCN1CCCC1`, the IC50 is 452 nM in the series with Plasmodium falciparum [1]; 124 nM with Plasmodium falciparum [3]; 23400 nM in series [4]; 375 nM in the series with Plasmodium falciparum [5]; 8700 nM in series [7]. Besides, the selectivity ratio in series [2] was found to be 70. The logD in series [6] turned out to be 1.05; in series [8], 3.

With `CCN(CC)CCNc1c2ccc(Cl)cc2nc2c3cc(Cl)ccc3n(CCN3CCCC3)c12`, the half-inhibitory concentration (IC50) with Plasmodium falciparum [1] amounted to 215 nM; in the series with Plasmodium falciparum [3], 73 nM; in series [4] it was 24800 nM; in the series with Plasmodium falciparum [5], 245 nM; in series [7], 7500 nM. The selectivity ratio in series [2] came to 103. The same compound had a logD in series [6] of 1.

`CCN(CC)CCOc1cc(Cl)cc2nc3c4cc(Cl)ccc4n(CCN(CC)CC)c3cc12`: in [2], the selectivity ratio was 212. The “Ratio IC50” value in the series with Plasmodium falciparum [10] and in the series on Plasmodium falciparum [11] was 0.3 throughout. This compound displayed a half-inhibitory concentration (IC50) in series [7] of 5300 nM.

Take `CCN(CC)CCCNc1c2ccc(Cl)cc2nc2c3ccccc3n(CCN3CCCC3)c12`: the IC50 turned out to be 455 nM in the series with Plasmodium falciparum [1]; 87 nM in the series with Plasmodium falciparum [3]; 21900 nM in series [4]; 480 nM in the series on Plasmodium falciparum [5]; 4500 nM in series [7]. The selectivity ratio in [2] came out at 52. The logD in [6] is -0.03; in [8], 1.48.

As to `CCN(CC)CCNc1c2ccc(Cl)cc2nc2c3cc(Cl)ccc3n(CCN3CCOCC3)c12`, the IC50 came to 683 nM in the series with Plasmodium falciparum [1]; 165 nM in the series with Plasmodium falciparum [3]; 14300 nM in series [4]; 513 nM in the series with Plasmodium falciparum [5]; 16600 nM in series [7]. Also, the selectivity ratio in [2] is 103. The compound also had a pH-dependent lipophilicity (logD) in [6] of 1.79.

As to `CCN(CC)CCCNc1c2ccc(Cl)cc2nc2c3cc(Cl)ccc3n(CCN3CCOCC3)c12`, the IC50 in the series with Plasmodium falciparum [1] amounted to 311 nM; in the series on Plasmodium falciparum [3], 95 nM; in [4] it was 21100 nM; in the series with Plasmodium falciparum [5], 199 nM; in series [7] it was 4700 nM. In addition, the selectivity ratio in [2] was found to be 49. In [6], this compound showed a logD of 1.5.

For `Clc1ccc2c(NCCCN3CCOCC3)c3c(nc2c1)c1ccccc1n3CCN1CCCC1`, the half-maximal inhibitory concentration (IC50) with Plasmodium falciparum [1] turned out to be 678 nM; in the series with Plasmodium falciparum [3] it was 90 nM; in series [4] it was 32900 nM; with Plasmodium falciparum [5], 469 nM; in series [7], 8600 nM. Also, the selectivity ratio in series [2] was determined as 96. In [6], this compound registered a logD of 0.69.

`Clc1ccc2c(NCCCN3CCCCC3)c3c(nc2c1)c1cc(Cl)ccc1n3CCN1CCCC1`: the IC50 came to 638 nM in the series with Plasmodium falciparum [1]; 97 nM with Plasmodium falciparum [3]; 13500 nM in series [4]; 660 nM in the series on Plasmodium falciparum [5]; 5700 nM in [7]. For the same compound, in series [2], the selectivity ratio is 59. The logD in series [6] amounted to 0.78; in series [8], 3.1.

On to `Clc1ccc2c(NCCCN3CCCCC3)c3c(nc2c1)c1ccccc1n3CCN1CCCC1`, for which the concentration for half-maximal inhibition (IC50) with Plasmodium falciparum [1] turned out to be 658 nM; in the series with Plasmodium falciparum [3] it was 117 nM; in [4] it was 42900 nM; with Plasmodium falciparum [5], 535 nM; in [7], 4300 nM. For the same compound, in [2], the selectivity ratio worked out at 37. For the same compound, the logD in series [6] was -0.01; in series [8] it was 2.8.

For the compound `CCN(CC)CCCNc1c2ccc(Cl)cc2nc2c3ccccc3n(CCN3CCOCC3)c12`, the IC50 in the series on Plasmodium falciparum [1] worked out at 453 nM; with Plasmodium falciparum [3], 113 nM; in [4], 26900 nM; in the series with Plasmodium falciparum [5] it was 320 nM; in series [7] it was 4600 nM. The selectivity ratio in [2] came to 41. The same compound gave a logD in [6] of 0.72.

For the compound `Clc1ccc2c(NCCCN3CCOCC3)c3c(nc2c1)c1cc(Cl)ccc1n3CCN1CCCC1`, the IC50 in the series with Plasmodium falciparum [1] worked out at 572 nM; with Plasmodium falciparum [3], 292 nM; in series [4], 17400 nM; in the series on Plasmodium falciparum [5], 407 nM; in series [7], 11900 nM. Also, the selectivity ratio in [2] turned out to be 41. For the same compound, in series [6], the logD was 1.5.
